In test [1] the test system is primary human fibroblasts derived from IPF patients (LL29 cells). Nature of the test: Inhibition of fibrotic process: αSMA staining in TGF-β1-treated primary human fibroblasts from IPF patients (LL29 cells). Particulars: Fibroblast, 96 h, LL29 cells treated with TGF-β1 (20 ng/mL), 4 days, 11-point dose-response from 10 μM to 1.87 nM, read-out: Inhibition of fibrosis EC50. Format: cell-based. Put shortly: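 LL29 IPF lung fibroblasts in F12 with 1% FBS, compound (11-point, 10 μM to 1.87 nM, 0.1% DMSO) plus TGF-β1 20 ng/mL for 4 days at 37° C. αSMA-positive % of SYTOX-negative cells by immunofluorescence imaging, normalized to TGF-β1 wells; EC50 from non-linear regression of triplicates.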

Test [2] deals with Wnt activity (Wnt-responsive Sp5 promoter-luciferase reporter in SW480 cells). The test can be described thus: Wnt activity screening assay: Sp5-Luc reporter gene in SW480 colon carcinoma cells. Format: cell-based. The settings on record: Homo sapiens. In short, it runs like this:
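IC50 values come from variable-slope four-parameter fits of luciferase signal normalized to DMSO wells. Stable Sp5-Luc reporter SW480 colon carcinoma cells were exposed to compounds in a 3-fold dilution series (source plates from 10 mM stock) for forty-two hours at 37 °C.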

pEC50, pIC50: −log10 of the molar value.

In the case of `CS(=O)(=O)NCc1cc(F)cc(-c2cncc3[nH]c(-c4n[nH]c5cnc(-c6cncc(NC(=O)C7CCC7)c6)cc45)nc23)c1` [Compound 410, N-(5-(3-(7-(3-Fluoro-5-(methylsulfonamidomethyl)phenyl)-3H-imidazo[4,5-c]pyridin-2-yl)-1H-pyrazolo[3,4-c]pyridin-5-yl)pyridin-3-yl)cyclobutanecarboxamide], in test [1], the pEC50 is 6.32. Also, in test [2], the pIC50 is 7.53.
As to `CS(=O)(=O)NCc1cc(F)cc(-c2cncc3[nH]c(-c4n[nH]c5cnc(-c6cncc(CNCc7ccccc7)c6)cc45)nc23)c1` [Compound 413, N-(3-(2-(5-(5-((Benzylamino)methyl)pyridin-3-yl)-1H-pyrazolo[3,4-c]pyridin-3-yl)-3H-imidazo[4,5-c]pyridin-7-yl)-5-fluorobenzyl)methanesulfonamide], the pEC50 in test [1] was at most 5.00. The compound also showed a pIC50 in test [2] of 7.24.
For `CS(=O)(=O)NCc1cc(F)cc(-c2cncc3[nH]c(-c4n[nH]c5cnc(-c6cncnc6)cc45)nc23)c1` [Compound 416, N-(3-Fluoro-5-(2-(5-(pyrimidin-5-yl)-1H-pyrazolo[3,4-c]pyridin-3-yl)-3H-imidazo[4,5-c]pyridin-7-yl)benzyl)methanesulfonamide] the same measures were at most 5.00 and below 5.00.
As for `CN(C)CCNc1cc(F)cc(-c2cncc3[nH]c(-c4n[nH]c5cnc(-c6cncc(N(C)C)c6)cc45)nc23)c1` [Compound 423], the pEC50 in test [1] is 5.69. The compound further had a pIC50 in test [2] of 6.32.
On to `CC(C)Nc1cncc(-c2cc3c(-c4nc5c(-c6cc(F)cc(NCCN(C)C)c6)cncc5[nH]4)n[nH]c3cn2)c1` [Compound 428, N^1-(3-Fluoro-5-(2-(5-(5-(isopropylamino)pyridin-3-yl)-1H-pyrazolo[3,4-c]pyridin-3-yl)-3H-imidazo[4,5-c]pyridin-7-yl)phenyl)-N2,N2-dimethylethane-1,2-diamine], for which the pEC50 in test [1] was at most 5.00. The pIC50 in test [2] is 6.76.
Take `CCCCC(=O)Nc1cncc(-c2cc3c(-c4nc5c(-c6cc(F)cc(NCCN(C)C)c6)cncc5[nH]4)n[nH]c3cn2)c1` [Compound 434, N-(5-(3-(7-(3-((2-(Dimethylamino)ethyl)amino)-5-fluorophenyl)-3H-imidazo[4,5-c]pyridin-2-yl)-1H-pyrazolo[3,4-c]pyridin-5-yl)pyridin-3-yl)pentanamide]: the pEC50 in test [1] was 5.08. This compound also gave a pIC50 in test [2] of 6.64.
For `CN(C)CCNc1cc(F)cc(-c2cncc3[nH]c(-c4n[nH]c5cnc(-c6cncc(CNCC7CCCC7)c6)cc45)nc23)c1` [Compound 440, N^1-(3-(2-(5-(5-(((Cyclopentylmethyl)amino)methyl)pyridin-3-yl)-1H-pyrazolo[3,4-c]pyridin-3-yl)-3H-imidazo[4,5-c]pyridin-7-yl)-5-fluorophenyl)-N2,N2-dimethylethane-1,2-diamine] the same measures were at least 8.05 and 5.92.
For `Fc1cccc(-c2cncc3[nH]c(-c4n[nH]c5cnc(C6CCNCC6)cc45)nc23)c1` [Compound 885, 3-(7-(3-Fluorophenyl)-3H-imidazo[4,5-c]pyridin-2-yl)-5-(piperidin-4-yl)-1H-pyrazolo[3,4-c]pyridine] the same measures were at most 5.00 and below 5.00.
Take `Fc1cccc(-c2cncc3[nH]c(-c4n[nH]c5cnc(C6=CCNCC6)cc45)nc23)c1` [Compound 886, 3-(7-(3-Fluorophenyl)-3H-imidazo[4,5-c]pyridin-2-yl)-5-(1,2,3,6-tetrahydropyridin-4-yl)-1H-pyrazolo[3,4-c]pyridine]: the negative-log EC50 (pEC50) in test [1] is 7.14. This compound also showed a pIC50 in test [2] of 5.71.
The matching figures for `Cc1ncc(-c2cc3c(-c4nc5c(-c6cccc(F)c6)cncc5[nH]4)n[nH]c3cn2)n1C` [Compound 889, 5-(1,2-Dimethyl-1H-imidazol-5-yl)-3-(7-(3-fluorophenyl)-3H-imidazo[4,5-c]pyridin-2-yl)-1H-pyrazolo[3,4-c]pyridine]: 7.34 and 6.26.
Take `O=C(CC1CCNCC1)Nc1cncc(-c2cc3c(-c4nc5c(-c6cccc(F)c6)cncc5[nH]4)n[nH]c3cn2)c1` [Compound 893, N-(5-(3-(7-(3-Fluorophenyl)-3H-imidazo[4,5-c]pyridin-2-yl)-1H-pyrazolo[3,4-c]pyridin-5-yl)pyridin-3-yl)-2-(piperidin-4-yl)acetamide]: the pEC50 in test [1] is at most 5.00. In test [2], this compound gave a pIC50 below 5.00.
The matching figures for `Oc1cncc(-c2cc3c(-c4nc5c(-c6cccc(F)c6)cncc5[nH]4)n[nH]c3cn2)c1` [Compound 897, 5-(3-(7-(3-Fluorophenyl)-3H-imidazo[4,5-c]pyridin-2-yl)-1H-pyrazolo[3,4-c]pyridin-5-yl)pyridin-3-ol]: 7.49 and 7.23.
For `Fc1cccc(-c2cncc3[nH]c(-c4n[nH]c5cnc(-c6ccncc6)cc45)nc23)c1` [Compound 900, 3-(7-(3-Fluorophenyl)-3H-imidazo[4,5-c]pyridin-2-yl)-5-(pyridin-4-yl)-1H-pyrazolo[3,4-c]pyridine] the same measures were at least 8.05 and 7.19.
On to `Fc1cccc(-c2cncc3[nH]c(-c4n[nH]c5cnc(-c6ccccn6)cc45)nc23)c1` [Compound 901, 3-(7-(3-Fluorophenyl)-3H-imidazo[4,5-c]pyridin-2-yl)-5-(pyridin-2-yl)-1H-pyrazolo[3,4-c]pyridine], for which, in test [1], the pEC50 was 6.23. This compound showed a pIC50 in test [2] of 6.09.
On to `CC(C)CC(=O)Nc1cncc(-c2cc3c(-c4nc5c(-c6cc(O)cc(F)c6)cncc5[nH]4)n[nH]c3cn2)c1` [Compound 1280, N-(5-(3-(7-(3-Fluoro-5-hydroxyphenyl)-3H-imidazo[4,5-c]pyridin-2-yl)-1H-pyrazolo[3,4-c]pyridin-5-yl)pyridin-3-yl)-3-methylbutanamide], for which, in test [1], the pEC50 is at least 8.05. The compound further gave a pIC50 in test [2] below 5.00.
For `COc1cc(F)cc(-c2cncc3[nH]c(-c4n[nH]c5cnc(-c6cncc(NC(=O)CC(C)C)c6)cc45)nc23)c1` [Compound 1324, N-(5-(3-(7-(3-Fluoro-5-methoxyphenyl)-3H-imidazo[4,5-c]pyridin-2-yl)-1H-pyrazolo[3,4-c]pyridin-5-yl)pyridin-3-yl)-3-methylbutanamide] the same measures were at least 8.05 and 6.26.
Turning to `CN(C)CC(=O)Nc1cncc(-c2cc3c(-c4nc5c(-c6cccc(F)c6)cncc5[nH]4)n[nH]c3cn2)c1` [Compound 1367, 2-(Dimethylamino)-N-(5-(3-(7-(3-fluorophenyl)-3H-imidazo[4,5-c]pyridin-2-yl)-1H-pyrazolo[3,4-c]pyridin-5-yl)pyridin-3-yl)acetamide], the pEC50 in test [1] was 6.84. Moreover, the pIC50 in test [2] is 6.29.

The record behind these values is patent US10052331B2, “3-(3H-imidazo[4,5-C]pyridin-2-yl)-1H-pyrazolo[3,4-C]pyridine and therapeutic uses thereof” (Samumed, LLC, priority 2014, dated 2018).
